Source: ChEMBL document CHEMBL3045391, “Synthesis and biological evaluation of 5,7-diaryl-4,4-dimethyl-4,5,6,7-tetrahydropyridino[3,4-d]-1,2,3-thiadiazoles” (2007)
Active and inactive are the calls of the source. The rule behind the calls is not given here.

Experiments:
Rhizopus [1] = assay: Antifungal activity against Rhizopus at 200 ppm after 72 to 96 hr by disk diffusion method; format: functional; details: read-out: IZ
Klebsiella pneumoniae [2] = assay: Antibacterial activity against Klebsiella pneumoniae at 500 ppm after 24 hr by disk diffusion method; format: functional; details: read-out: IZ
Nannizzia gypsea [3] = assay: Antifungal activity against Microsporum gypseum at 500 ppm after 72 to 96 hr by disk diffusion method; format: functional; details: read-out: IZ
Escherichia coli [4] = assay: Antibacterial activity against Escherichia coli at 500 ppm after 24 hr by disk diffusion method; format: functional; details: read-out: IZ
Pseudomonas [5] = assay: Antibacterial activity against Pseudomonas at 500 ppm after 24 hr by disk diffusion method; format: functional; details: read-out: IZ
Streptococcus [6] = assay: Antibacterial activity against beta-hemolytic Streptococcus at 200 ppm after 24 hr by disk diffusion method; format: functional; details: read-out: IZ
Salmonella typhi [7] = assay: Antibacterial activity against Salmonella enterica subsp. enterica serovar Typhi at 100 ppm after 24 hr by disk diffusion method; format: functional; details: for zone of inhibition at 100 ppm: read-out: IZ
Rhizopus [8] = assay: Antifungal activity against Rhizopus at 100 ppm after 72 to 96 hr by disk diffusion method; format: functional
Mucor [9] = assay: Antifungal activity against Mucor at 500 ppm after 72 to 96 hr by disk diffusion method; format: functional; details: read-out: IZ
Mucor [10] = assay: Antifungal activity against Mucor at 100 ppm after 72 to 96 hr by disk diffusion method; format: functional
Aspergillus flavus [11] = assay: Antifungal activity against Aspergillus flavus at 200 ppm after 72 to 96 hr by disk diffusion method; format: functional; details: read-out: IZ
Aspergillus flavus [12] = assay: Antifungal activity against Aspergillus flavus at 500 ppm after 72 to 96 hr by disk diffusion method; format: functional; details: read-out: IZ
Pseudomonas [13] = assay: Antibacterial activity against Pseudomonas at 200 ppm after 24 hr by disk diffusion method; format: functional; details: read-out: IZ
Shigella flexneri [14] = assay: Antibacterial activity against Shigella flexneri at 500 ppm after 24 hr by disk diffusion method; format: functional; details: read-out: IZ
Shigella flexneri [15] = assay: Antibacterial activity against Shigella flexneri at 100 ppm after 24 hr by disk diffusion method; format: functional; details: for zone of inhibition at 100 ppm: read-out: IZ
Shigella flexneri [16] = assay: Antibacterial activity against Shigella flexneri at 200 ppm after 24 hr by disk diffusion method; format: functional; details: read-out: IZ
Escherichia coli [17] = assay: Antibacterial activity against Escherichia coli at 200 ppm after 24 hr by disk diffusion method; format: functional; details: read-out: IZ
Rhizopus [18] = assay: Antifungal activity against Rhizopus at 500 ppm after 72 to 96 hr by disk diffusion method; format: functional; details: read-out: IZ
Nannizzia gypsea [19] = assay: Antifungal activity against Microsporum gypseum at 200 ppm after 72 to 96 hr by disk diffusion method; format: functional; details: read-out: IZ
Vibrio cholerae [20] = assay: Antibacterial activity against Vibrio cholerae at 500 ppm after 24 hr by disk diffusion method; format: functional; details: read-out: IZ
Klebsiella pneumoniae [21] = assay: Antibacterial activity against Klebsiella pneumoniae at 100 ppm after 24 hr by disk diffusion method; format: functional; details: read-out: IZ
Staphylococcus aureus [22] = assay: Antibacterial activity against Staphylococcus aureus at 500 ppm after 24 hr by disk diffusion method; format: functional; details: read-out: IZ
Salmonella typhi [23] = assay: Antibacterial activity against Salmonella enterica subsp. enterica serovar Typhi at 200 ppm after 24 hr by disk diffusion method; format: functional; details: read-out: IZ
Vibrio cholerae [24] = assay: Antibacterial activity against Vibrio cholerae at 100 ppm after 24 hr by disk diffusion method; format: functional; details: read-out: IZ
Staphylococcus aureus [25] = assay: Antibacterial activity against Staphylococcus aureus at 100 ppm after 24 hr by disk diffusion method; format: functional; details: for zone of inhibition at 100 ppm: read-out: IZ
Aspergillus flavus [26] = assay: Antifungal activity against Aspergillus flavus at 100 ppm after 72 to 96 hr by disk diffusion method; format: functional; details: read-out: IZ
Streptococcus [27] = assay: Antibacterial activity against beta-hemolytic Streptococcus at 500 ppm after 24 hr by disk diffusion method; format: functional; details: read-out: IZ
Mucor [28] = assay: Antifungal activity against Mucor at 200 ppm after 72 to 96 hr by disk diffusion method; format: functional; details: read-out: IZ
Klebsiella pneumoniae [29] = assay: Antibacterial activity against Klebsiella pneumoniae at 200 ppm after 24 hr by disk diffusion method; format: functional; details: read-out: IZ
Pseudomonas [30] = assay: Antibacterial activity against Pseudomonas at 100 ppm after 24 hr by disk diffusion method; format: functional
Staphylococcus aureus [31] = assay: Antibacterial activity against Staphylococcus aureus at 200 ppm after 24 hr by disk diffusion method; format: functional; details: read-out: IZ
Nannizzia gypsea [32] = assay: Antifungal activity against Microsporum gypseum at 100 ppm after 72 to 96 hr by disk diffusion method; format: functional; details: read-out: IZ
Salmonella typhi [33] = assay: Antibacterial activity against Salmonella enterica subsp. enterica serovar Typhi at 500 ppm after 24 hr by disk diffusion method; format: functional; details: read-out: IZ
Vibrio cholerae [34] = assay: Antibacterial activity against Vibrio cholerae at 200 ppm after 24 hr by disk diffusion method; format: functional; details: read-out: IZ
Escherichia coli [35] = assay: Antibacterial activity against Escherichia coli at 100 ppm after 24 hr by disk diffusion method; format: functional, organism-based
Streptococcus [36] = assay: Antibacterial activity against beta-hemolytic Streptococcus at 100 ppm after 24 hr by disk diffusion method; format: functional, organism-based

Row | Compound | zone of inhibition at 200 ppm (Rhizopus [1]) | zone of inhibition at 500 ppm (Klebsiella pneumoniae [2]) | zone of inhibition at 500 ppm (Nannizzia gypsea [3]) | zone of inhibition at 500 ppm (Escherichia coli [4]) | zone of inhibition at 500 ppm (Pseudomonas [5]) | zone of inhibition at 200 ppm (Streptococcus [6]) | zone of inhibition at 500 ppm (Mucor [9]) | zone of inhibition at 200 ppm (Aspergillus flavus [11]) | zone of inhibition at 500 ppm (Aspergillus flavus [12]) | zone of inhibition at 200 ppm (Pseudomonas [13]) | zone of inhibition at 500 ppm (Shigella flexneri [14]) | zone of inhibition at 200 ppm (Shigella flexneri [16]) | zone of inhibition at 200 ppm (Escherichia coli [17]) | zone of inhibition at 500 ppm (Rhizopus [18]) | zone of inhibition at 200 ppm (Nannizzia gypsea [19]) | zone of inhibition at 500 ppm (Vibrio cholerae [20]) | zone of inhibition at 100 ppm (Klebsiella pneumoniae [21]) | zone of inhibition at 500 ppm (Staphylococcus aureus [22]) | zone of inhibition at 200 ppm (Salmonella typhi [23]) | zone of inhibition at 100 ppm (Vibrio cholerae [24]) | also measured
1 | COc1ccc(C2NC(c3ccc(OC)cc3)C(C)(C)c3nnsc32)cc1 (stereo not drawn) | 12 mm | 22 mm | 30 mm | 17 mm | 12 mm | 12 mm | 17 mm | 12 mm | 17 mm | 12 mm | 17 mm | 17 mm | 17 mm | 22 mm | 17 mm | 17 mm | 17 mm | 30 mm | 17 mm | 12 mm | zone of inhibition at 100 ppm (Salmonella typhi [7]): 12 mm; inhibition zone (IZ) (Rhizopus [8]): inactive; zone of inhibition at 100 ppm (Mucor [10]; read-out: IZ): 12 mm; zone of inhibition at 100 ppm (Shigella flexneri [15]): 12 mm; zone of inhibition at 100 ppm (Staphylococcus aureus [25]): 12 mm; zone of inhibition at 100 ppm (Aspergillus flavus [26]): 12 mm; zone of inhibition at 500 ppm (Streptococcus [27]): 30 mm; zone of inhibition at 200 ppm (Mucor [28]): 17 mm; zone of inhibition at 200 ppm (Klebsiella pneumoniae [29]): 17 mm; inhibition zone (IZ) (Pseudomonas [30]): inactive; zone of inhibition at 200 ppm (Staphylococcus aureus [31]): 22 mm; zone of inhibition at 100 ppm (Nannizzia gypsea [32]): 12 mm; zone of inhibition at 500 ppm (Salmonella typhi [33]): 17 mm; zone of inhibition at 200 ppm (Vibrio cholerae [34]): 17 mm; inhibition zone (IZ) (Escherichia coli [35]): inactive; inhibition zone (IZ) (Streptococcus [36]): inactive
2 | CC1(C)c2nnsc2C(c2ccccc2)NC1c1ccccc1 (stereo not drawn) | 17 mm | 22 mm | 30 mm | 12 mm | 12 mm | 12 mm | 17 mm | 12 mm | 17 mm | 12 mm | 17 mm | 12 mm | 12 mm | 17 mm | 17 mm | 17 mm | 12 mm | 22 mm | 12 mm | 12 mm | zone of inhibition at 100 ppm (Salmonella typhi [7]): 12 mm; zone of inhibition at 100 ppm (Rhizopus [8]; read-out: IZ): 12 mm; inhibition zone (IZ) (Mucor [10]): inactive; inhibition zone (IZ) (Shigella flexneri [15]): inactive; inhibition zone (IZ) (Staphylococcus aureus [25]): inactive; zone of inhibition at 100 ppm (Aspergillus flavus [26]): 12 mm; zone of inhibition at 500 ppm (Streptococcus [27]): 22 mm; zone of inhibition at 200 ppm (Mucor [28]): 12 mm; zone of inhibition at 200 ppm (Klebsiella pneumoniae [29]): 17 mm; zone of inhibition at 100 ppm (Pseudomonas [30]; read-out: IZ): 12 mm; zone of inhibition at 200 ppm (Staphylococcus aureus [31]): 17 mm; zone of inhibition at 100 ppm (Nannizzia gypsea [32]): 12 mm; zone of inhibition at 500 ppm (Salmonella typhi [33]): 12 mm; zone of inhibition at 200 ppm (Vibrio cholerae [34]): 12 mm; inhibition zone (IZ) (Escherichia coli [35]): inactive; inhibition zone (IZ) (Streptococcus [36]): inactive
3 | CC1(C)c2nnsc2C(c2ccc(Cl)cc2)NC1c1ccc(Cl)cc1 (stereo not drawn) | 12 mm | 22 mm | 22 mm | 17 mm | 12 mm | 12 mm | 12 mm | 12 mm | 17 mm | 12 mm | 12 mm | 12 mm | 12 mm | 22 mm | 17 mm | 12 mm | 12 mm | 30 mm | 17 mm | 12 mm | inhibition zone (IZ) (Salmonella typhi [7]): inactive; inhibition zone (IZ) (Rhizopus [8]): inactive; inhibition zone (IZ) (Mucor [10]): inactive; zone of inhibition at 100 ppm (Shigella flexneri [15]): 12 mm; zone of inhibition at 100 ppm (Staphylococcus aureus [25]): 12 mm; zone of inhibition at 100 ppm (Aspergillus flavus [26]): 12 mm; zone of inhibition at 500 ppm (Streptococcus [27]): 30 mm; zone of inhibition at 200 ppm (Mucor [28]): 12 mm; zone of inhibition at 200 ppm (Klebsiella pneumoniae [29]): 17 mm; inhibition zone (IZ) (Pseudomonas [30]): inactive; zone of inhibition at 200 ppm (Staphylococcus aureus [31]): 22 mm; zone of inhibition at 100 ppm (Nannizzia gypsea [32]): 12 mm; zone of inhibition at 500 ppm (Salmonella typhi [33]): 17 mm; zone of inhibition at 200 ppm (Vibrio cholerae [34]): 12 mm; inhibition zone (IZ) (Escherichia coli [35]): inactive; inhibition zone (IZ) (Streptococcus [36]): inactive
